Data on 22 compounds can be found in US20230098332A1, “HETEROCYCLIC DERIVATIVES AS TRMP8 ANTAGONISTS” (Givaudan SA, priority 2020, published 2023).

In assay [1] the test system is trained group of panelists. The experiment in a line: Sensory studies in aqueous solution (trained panelists, cooling in the mouth). The assay is classed as in vivo, human. To be noted: 40 ppm in aqueous solution, 20 mL swilled in the mouth for 60 seconds; for Cooling after 1 hour / Max. cooling: averaged panel score 0-10. The method, then: The compounds as listed below in Table 2 were dissolved at a concentration of 1 wt-% in propylene glycol. These solutions were then dispensed in appropriate quantities into deionized water containing 0.5 wt-% Poloxamer 407 (which is a hydrophilic non-ionic surfactant, e.g., commercially available from SigmaAldrich) and 0.25 wt-% Cremaphor® RH40 (obtained from BASF) as solubilizer, to obtain the desired final concentration of 40 ppm (parts per million) of the respective compound.
A trained group of panelists evaluated the aqueous solutions containing test compound by swilling 20 mL of the solution in the mouth for 60 seconds, followed by spitting, without rinsing the mouth afterwards for the duration of the evaluation. Panelists evaluated and recorded the cooling performance as well as other sensorial and organoleptic attributes at different timepoints over a period of two hours. Cooling performance was rated on a scale from 0 to 10 with 0 being no effect and 10 being freezing. Scores were averaged for all panelists and the cooling intensity qualified as “N” for “none” (score of 0), “L” for “low” (score above 0, up to 1), “M” for “medium” (score above 1, up to 4), “S” for “strong” (score above 4, up to 8) and “E” for “extreme” (score above 8), which are provided in Table 2.

Another assay concerns the target T1, hTRPM8 (Homo sapiens, UniProt Q7Z2W7).
T1 construct: expressed in transfected cells
Description: Assay on TRPM8 modulators: calcium imaging (Fluo-4, Flexstation) in HEK293 cell line stably expressing hTRPM8. The assay is classed as cell-based. The settings on record: TRPM8 agonist activity, calcium influx, HEK293 stably expressing hTRPM8, sigmoidal dose-response fit. The method, then:
A HEK293 cell line stably expressing hTRPM8 was generated according to Klein et al., (Chem. Senses 36: 649-658, 2011) and receptor activation was monitored by calcium imaging in a Flexstation. For Ca-imaging assays of TRPM8 channel activation, cells were seeded on day 0 at a density of 12000 cells per well in Dulbecco's modified Eagle medium (DMEM) containing 9% foetal bovine serum in black, clear bottom 96-well plates that had been coated with 0.001% polyethyleneimine (molecular weight=60 000, Acros Organics). On day 2, agonists were evaluated via calcium imaging using Fluo-4. Briefly, growth medium was discarded, and the cells were incubated in the dark for 1 h at 37° C. in 50 μL loading buffer consisting of 2.7 μM Fluo-4 AM (Invitrogen) and […] probenecid (Sigma-Aldrich) in DMEM (without serum). After incubation, the plates were washed five times with 100 μL of assay buffer (in mM: 130 NaCl, 5 KCl, 10 HEPES, 2 CaCl2, and 10 glucose, pH7.4.) and further incubated in the dark at room temperature for 30 min. The cells were then washed five times with 100 μL assay buffer and then calcium influx to serial dilutions of inventive compounds were measured in a Flexstation 3 (Molecular Devices). Receptor activation was initiated following addition of 20 μl of a 10-fold concentrated ligand stock solution, which is also prepared in assay buffer. Fluorescence was continuously monitored for 15 seconds prior to ligand addition and for 105 seconds after ligand addition, for a total of 120 seconds. Maximal receptor activation in relation to solvent control and relative to 31.6 μM menthol is determined. Data from serial dilutions were processed with a KNIME workflow to fit a sigmoidal dose-response curve and to extrapolate EC50 values.

The structures appear in SMILES notation. Counter-ions that a name gives are not always drawn.

T1 sequence (Q7Z2W7 whole entry): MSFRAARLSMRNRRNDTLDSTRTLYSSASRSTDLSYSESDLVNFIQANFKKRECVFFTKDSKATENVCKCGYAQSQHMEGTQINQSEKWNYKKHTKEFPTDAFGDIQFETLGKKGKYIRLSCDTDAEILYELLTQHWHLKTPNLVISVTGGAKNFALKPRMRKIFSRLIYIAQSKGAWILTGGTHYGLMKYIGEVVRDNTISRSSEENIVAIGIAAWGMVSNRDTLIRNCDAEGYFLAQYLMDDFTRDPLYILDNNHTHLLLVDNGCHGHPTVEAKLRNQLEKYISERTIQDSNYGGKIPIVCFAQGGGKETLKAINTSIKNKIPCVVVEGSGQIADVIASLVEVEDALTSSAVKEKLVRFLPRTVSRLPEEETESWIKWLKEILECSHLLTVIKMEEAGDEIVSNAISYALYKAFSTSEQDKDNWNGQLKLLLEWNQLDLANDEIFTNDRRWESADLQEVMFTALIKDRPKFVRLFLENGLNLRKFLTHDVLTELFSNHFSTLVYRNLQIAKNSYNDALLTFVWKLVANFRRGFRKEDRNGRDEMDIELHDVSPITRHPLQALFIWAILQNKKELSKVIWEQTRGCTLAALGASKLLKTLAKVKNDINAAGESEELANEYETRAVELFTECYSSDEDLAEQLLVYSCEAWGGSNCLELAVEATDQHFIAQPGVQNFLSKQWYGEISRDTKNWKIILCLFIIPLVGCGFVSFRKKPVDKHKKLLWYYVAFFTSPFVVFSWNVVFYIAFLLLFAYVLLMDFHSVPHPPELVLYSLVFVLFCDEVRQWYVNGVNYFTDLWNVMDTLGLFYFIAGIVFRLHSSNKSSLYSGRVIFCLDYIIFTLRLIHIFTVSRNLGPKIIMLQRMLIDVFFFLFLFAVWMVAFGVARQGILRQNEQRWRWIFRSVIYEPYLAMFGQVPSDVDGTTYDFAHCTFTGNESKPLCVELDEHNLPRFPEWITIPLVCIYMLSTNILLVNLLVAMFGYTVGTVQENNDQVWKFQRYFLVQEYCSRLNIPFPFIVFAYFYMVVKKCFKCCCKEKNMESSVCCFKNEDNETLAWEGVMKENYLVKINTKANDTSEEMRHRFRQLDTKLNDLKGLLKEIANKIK

Regarding `Cc1ccc(OCCN2CC(C)N(C)C(C)C2)c(Cc2ccccc2)c1` (stereo not shown) [compound 158, 4-(2-(2-benzyl-4-methylphenoxy)ethyl)-1,2,6-trimethylpiperazine], in assay [1], the “Time of max. cooling” value turned out to be 30 min; the “Cooling after 1 hour” value is “M (“M” for “medium” (score above 1, up to 4))”; the Max. cooling result is “M (“M” for “medium” (score above 1, up to 4))”. The EC50 (usually the concentration needed to bring the measured effect to its halfway point) at hTRPM8 fell in the range of 0.3 to 1 µM.

For `Cc1ccc(CCCN2CCN(C)CC2)c(Cc2ccccc2)c1` [compound 100, 1-(3-(2-benzyl-4-methylphenyl)propyl)-4-methylpiperazine], in assay [1], the “Time of max. cooling” value amounted to 10 min; the “Cooling after 1 hour” value was “M (“M” for “medium” (score above 1, up to 4))”; the Max. cooling entry was “M (“M” for “medium” (score above 1, up to 4))”. Moreover, the EC50 on hTRPM8 was in the range of 0.3 to 1 µM.

Consider `Cc1ccc(OCCN2CCOCC2)c(Cc2ccccc2)c1.Cl` [compound 159, 4-(2-(2-benzyl-4-methylphenoxy)ethyl)morpholine hydrochloride], for which, in assay [1], the “Time of max. cooling” value was 5 min; the “Cooling after 1 hour” value is given as “L (“L” for “low” (score above 0, up to 1))”; the Max. cooling result is recorded as “M (“M” for “medium” (score above 1, up to 4))”. Moreover, at hTRPM8, the half-maximal effective concentration (EC50) fell in the range of 1 to 35 µM.

Regarding `Cc1ccc(OC(C)CN2CCN(C)CC2)c(Cc2ccccc2)c1` (stereo not shown) [compound 90, 1-(2-(2-benzyl-4-methylphenoxy)propyl)-4-methylpiperazine], in assay [1], the “Time of max. cooling” value was 10 min; the “Cooling after 1 hour” value was “M (“M” for “medium” (score above 1, up to 4))”; the Max. cooling entry was “M (“M” for “medium” (score above 1, up to 4))”. In addition, the concentration for a half-maximal effect (EC50) at hTRPM8 fell in the range of 0.3 to 1 µM.

For the compound `CC1=C(OCCN2CCN(C)CC2)/C(=C/c2ccccc2)CC(C)C1` (stereo not shown) [compound 43, (E)-1-(2-((6-benzylidene-2,4-dimethylcyclohex-1-en-1-yl)oxy)ethyl)-4-methylpiperazine], the EC50 at hTRPM8 lay in the range of 1 to 35 µM.

With `Cc1cc(C)c(OCCC2CCOCC2)c(Cc2ccccc2C#N)c1` [compound 119, 2-(3,5-dimethyl-2-(2-(tetrahydro-2H-pyran-4-yl)ethoxy)benzyl)benzonitrile], in assay [1], the “Time of max. cooling” value came to 10 min; the “Cooling after 1 hour” value is “L (“L” for “low” (score above 0, up to 1))”; the Max. cooling entry is listed as “M (“M” for “medium” (score above 1, up to 4))”. In addition, on hTRPM8, the EC50 lay in the range of 0.05 to 0.3 µM.

Consider `Cc1ccc(O)c(Cc2cc(C)ccc2OCCN2CCN(C)CC2)c1` [compound 163, 4-methyl-2-(5-methyl-2-(2-(4-methylpiperazin-1-yl)ethoxy)benzyl)phenol], for which the EC50 at hTRPM8 lay within 1 to 35 µM.

Regarding `Cc1ccc(OCCN2CCC(O)CC2)c(Cc2ccccc2)c1` [compound 89, 1-(2-(2-benzyl-4-methylphenoxy)ethyl)piperidin-4-ol], the EC50 at hTRPM8 fell in the range of 1 to 35 µM.

Turning to `CCN1CCN(CCOc2ccc(C)cc2Cc2ccccc2)CC1` [compound 76, 1-(2-(2-benzyl-4-methylphenoxy)ethyl)-4-ethylpiperazine hydrochloride], at hTRPM8, the half-maximal effective concentration (EC50) is 1 to 35 µM.

For `Cc1ccc(OCCN2CCN(C)CC2)c(Cc2ccccc2Cl)c1` [compound 55, 1-(2-(2-(2-chlorobenzyl)-4-methylphenoxy)ethyl)-4-methylpiperazine], on hTRPM8, the EC50 lay within 0.05 to 0.3 µM.

`Cc1ccc(OCCN2CCN(C)CC2)c(Cc2ccccc2C)c1` [compound 103, 1-methyl-4-(2-(4-methyl-2-(2-methylbenzyl)phenoxy)ethyl)piperazine]: the EC50 on hTRPM8 is 0.3 to 1 µM.

Take `Cc1cc(C)c(N(C)CCN2CCOCC2)c(Cc2ccccc2F)c1` [compound 113, 2-(2-fluorobenzyl)-N,4,6-trimethyl-N-(2-morpholinoethyl)aniline]: the EC50 on hTRPM8 lay within 0.3 to 1 µM.

Turning to `CN1CCN(CCOc2ccccc2Cc2ccccc2)CC1` [compound 93, 1-(2-(2-benzylphenoxy)ethyl)-4-methylpiperazine hydrochloride], the EC50 at hTRPM8 lay in the range of 1 to 35 µM.

Turning to `Cc1ccc(CCCN2CCN(C)CC2)c(Oc2ccccc2C#N)c1` [compound 133, 2-(5-methyl-2-(3-(4-methylpiperazin-1-yl)propyl)phenoxy)benzonitrile], the 50% effective concentration (EC50) on hTRPM8 was in the range of 0.05 to 0.3 µM.

For the compound `Cc1cc(C)c(OCCN2CCN(C)CC2)c(Cc2ccccc2I)c1` [compound 57, 1-(2-(2-(2-iodobenzyl)-4,6-dimethylphenoxy)ethyl)-4-methylpiperazine], the EC50 at hTRPM8 lay in the range of 0.3 to 1 µM.

For `Cc1ccc(OCCN2CCN(C)CC2)c(Cc2ccccc2)c1` [compound 77, 1-(2-(2-benzyl-4-methylphenoxy)ethyl)-4-methylpiperazine], in assay [1], the “Time of max. cooling” value was 10 min; the “Cooling after 1 hour” value was “M (“M” for “medium” (score above 1, up to 4))”; the Max. cooling result is on record as “M (“M” for “medium” (score above 1, up to 4))”. In addition, the EC50 on hTRPM8 lay in the range of 0.3 to 1 µM.

As to `Cc1ccc(OCCN2CCN(C)CC2)c(Cc2ccc(Cl)cc2)c1` [compound 60, 1-(2-(2-(4-chlorobenzyl)-4-methylphenoxy)ethyl)-4-methylpiperazine hydrochloride], the EC50 at hTRPM8 fell in the range of 1 to 35 µM.

With `Cc1cc(C)c(OCCN2CCN(C)CC2)c(Cc2ccccc2Br)c1` [compound 54, 1-(2-(2-(2-bromobenzyl)-4,6-dimethylphenoxy)ethyl)-4-methylpiperazine], the concentration giving a half-maximal response (EC50) on hTRPM8 lay within 0.3 to 1 µM.

Regarding `Cc1ccc(OCCN2CCN(C)CC2)c(Cc2ccco2)c1` [compound 61, 1-(2-(2-(furan-2-ylmethyl)-4-methylphenoxy)ethyl)-4-methylpiperazine], the EC50 on hTRPM8 lay within 1 to 35 µM.

In the case of `Cc1ccc(OCCN2CCN(C)CC2)c(Cc2ccc(Cl)s2)c1` [compound 53, 1-(2-(2-((5-chlorothiophen-2-yl)methyl)-4-methylphenoxy)ethyl)-4-methylpiperazine], on hTRPM8, the concentration giving a half-maximal response (EC50) was 1 to 35 µM.

On to `Cc1ccc(OCCN2CCN(C)CC2)c(CC(C)C)c1` [compound 94, 1-(2-(2-isobutyl-4-methylphenoxy)ethyl)-4-methylpiperazine], for which the EC50 on hTRPM8 lay within 1 to 35 µM.

Consider `COC(=O)c1ccc(OCCN2CCN(C)CC2)c(Cc2ccccc2)c1` [compound 165, methyl 3-benzyl-4-(2-(4-methylpiperazin-1-yl)ethoxy)benzoate], for which the EC50 on hTRPM8 was in the range of 1 to 35 µM.
